Data from article PMC11127330, “Repurposing harmaline as a novel approach to reverse tmexCD1-toprJ1-mediated tigecycline resistance against klebsiella pneumoniae infections” (Microbial Cell Factories, 2024).

Molecular target: T1, TMexD1 (Klebsiella pneumoniae, UniProt A0A411AKL6)
T1 construct: GST fusion from pGEX-6P-1-tmexD1 (BamHI/XhoI), E. coli BL21(DE3); plasmid-borne gene of tmexCD1-toprJ1
Assay: circular dichroism, secondary structure change
Conditions: harmaline 128 mg/L; 190-260 nm; indirect evidence of binding

T1 sequence (A0A411AKL6 entry or part of it): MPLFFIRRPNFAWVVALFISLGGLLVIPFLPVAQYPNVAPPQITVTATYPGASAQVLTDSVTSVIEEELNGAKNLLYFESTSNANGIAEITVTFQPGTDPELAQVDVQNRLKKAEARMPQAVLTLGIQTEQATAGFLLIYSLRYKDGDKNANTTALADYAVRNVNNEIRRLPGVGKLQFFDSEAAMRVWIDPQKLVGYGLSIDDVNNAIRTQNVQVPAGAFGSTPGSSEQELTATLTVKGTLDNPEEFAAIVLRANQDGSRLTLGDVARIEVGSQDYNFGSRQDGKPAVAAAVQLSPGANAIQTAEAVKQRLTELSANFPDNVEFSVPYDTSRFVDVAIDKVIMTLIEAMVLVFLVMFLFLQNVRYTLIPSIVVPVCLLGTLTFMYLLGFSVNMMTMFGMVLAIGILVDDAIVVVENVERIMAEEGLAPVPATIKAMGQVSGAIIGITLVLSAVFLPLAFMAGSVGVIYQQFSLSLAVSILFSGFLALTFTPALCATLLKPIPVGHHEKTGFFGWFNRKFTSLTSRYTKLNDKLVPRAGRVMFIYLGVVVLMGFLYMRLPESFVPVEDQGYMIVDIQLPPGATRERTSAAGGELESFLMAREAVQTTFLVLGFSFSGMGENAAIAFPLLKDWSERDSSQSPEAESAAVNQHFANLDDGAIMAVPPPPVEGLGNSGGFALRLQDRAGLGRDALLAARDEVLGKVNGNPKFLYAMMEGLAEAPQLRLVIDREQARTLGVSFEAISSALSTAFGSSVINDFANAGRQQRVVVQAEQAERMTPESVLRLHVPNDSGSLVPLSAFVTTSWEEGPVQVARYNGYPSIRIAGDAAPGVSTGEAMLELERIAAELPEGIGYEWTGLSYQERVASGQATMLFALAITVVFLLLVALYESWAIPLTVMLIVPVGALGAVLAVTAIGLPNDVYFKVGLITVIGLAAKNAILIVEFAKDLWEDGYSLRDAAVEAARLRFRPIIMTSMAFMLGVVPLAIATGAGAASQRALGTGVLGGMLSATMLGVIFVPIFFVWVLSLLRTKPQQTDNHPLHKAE

## COc1ccc2c3c([nH]c2c1)C(C)=NCC3 [harmaline]
  circular dichroism, secondary structure change: TMexD1 (Fig. 7C and D) and TOprJ1 (Fig. 7E and F) were observed by harmaline treatment
